Reference: US11147763B2, “Vaginal ring with visual indication of use” (RESEARCH TRIANGLE INSTITUTE, priority 2015, dated 2021)

Experiments:
[1] = Screen of pH-based color changing tracers in biocompatible-grade silicone material; format: physicochemical; conditions: biocompatible-grade silicone placed into an aqueous environment
Protocol: For the second approach, research efforts focused on developing systems for analyzing biological constituents that diffuse into the ring causing a pH change (FIG. 2B, ii). To accomplish this testing strategy, a variety of pH-based color changing formulations were evaluated in biocompatible-grade silicone material. […] This material screen also facilitated the abandonment of tracers with poor performance, such as highly hydrophilic molecular families with high expulsion tendencies.

[2] = Diffusion of indicator out of silicone (PDMS) vaginal ring into surrounding solution; format: physicochemical; conditions: aqueous conditions, over the course of one week (FIG. 3B)
Protocol: Two different approaches were tested to assess the usage of the vaginal ring (FIG. 2A and FIG. 2B). First, a system with signal change resultant of indicator diffusion (i) out of the ring was tested (FIG. 2A).
In these cases, silicone (polydimethyl siloxane, PDMS) was utilized in combination with rhodamine-B, fluorescein, and a rhodamine-B/Brilliant Blue combination. (FIG. 3A).

Structure (SMILES)	leaching of tracer from the silicone material [1]	release of indicator from the silicone material [2]
O=C1c2ccccc2C(=O)c2c1ccc(O)c2O [Alazarin]	readily leached from the silicone material	
CN(C)c1ccc(/N=N/c2ccccc2C(=O)O)cc1 [Methyl Red]	readily leached from the silicone material	
CCN(CC)c1ccc2c(-c3ccccc3C(=O)O)c3ccc(=[N+](CC)CC)cc-3oc2c1.[Cl-] [rhodamine-B]		readily released from the silicone material
